# Measured values published in patent publication US20220054496A1, “MODULATION OF TRF1 FOR BRAIN CANCER TREATMENT” (Fundación Del Sector Público Estatal Centro Nacional De …, priority 2018, published 2022).
# “Also recorded” adds a separate entry of the source.
# Legend:
# U251 cells = assay: Neurosphere formation assay in U251 cells; type: cell-based, human; conditions: U251 in NSC media; seven days; vs DMSO
# Experimental: (§1) Spheres were dissociated into single cells and seeded at a density of 50, 100, 200 and 400 cells/well in a 96 well plate. Neurosphere number was assessed after 7 days. Pictures were taken using Nikon Eclipse Ti-U microscope and neurosphere diameter was measured using NIS Elements BR software.
# Finally, the present inventors checked if the three chemical compounds had the ability to reduce sternness in these cells. They cultured U251 cells with NSC media in order to obtain a suspension culture enriched in stem cells. The inventors performed a sphere formation assay with these cells treated with ETP-47228, ETP-47037 and ETP-50946 or DMSO for seven days. […] Of note, all these effects recapitulated what the present inventors observed with Trf1 genetic downregulation (See 2.2).
# TRF1 [1] = assay: TRF1 nuclear immunofluorescence (TRF1 foci) in U251 cells; type: cell-based, human; conditions: 10 μM, 24 h or 48 hr
# Experimental: For immunofluorescence analyses, cells were plated in a proper density in cell culture μCLEAR plates (Greiner) and fixed in 4% formaldehyde in PBS. Cells were permeabilized with 0.25% Triton in PBS and blocked with 5% BSA in PBS. Tissue sections were fixed in 10% buffered formalin (Sigma) and embedded in paraffin. After deparaffinization and citrate antigen retrieval, sections were permeabilized with 0.5% Triton in PBS and blocked with 1% BSA and 10% Australian FBS ([…]) in PBS. The antibodies were applied overnight in antibody diluents with background reducing agents (Invitrogen).
# Immunofluorescence images were obtained using a confocal ultraspectral microscope (Leica TCS-SP5) or the Opera High Content Screening (HCS) system (Perkin Elmer). Quantifications were performed with Definiens software.
# (§2) For in vitro studies, ETP-47228 ETP-47037 and ETP-50946 were dissolved in DMSO at a final concentration of 10 or 5 mM. Cells were treated at a concentration of 10 μM for 24 h or 48 hr.
# (§3) To address whether these small molecules could represent a new therapeutic strategy for the treatment of GBM, the present inventors first tested the ability of the three independent TRF1 inhibitory molecules (ETP-47228, ETP-47037 and ETP-50946) to downregulate TRF1 protein levels in the U251 human GBM cell line.
# TRF1 [2] = assay: Western blot of total TRF1 protein in U251 cells; type: cell-based, human; conditions: 10 μM, 24 h or 48 hr
# Experimental: (§4) Nuclear protein extracts were obtained using Nuclear Cytosolic Fractionation Kit (Biovision) and protein concentration was determined using the Bio-Rad DC Protein Assay (Bio-Rad). Up to 15 μg of protein per extract were separated in SDS-polyacrylamide gels by electrophoresis. After protein transfer onto nitrocellulose membrane (Whatman), the membranes were incubated with the indicated antibodies. Antibody binding was detected after incubation with a secondary antibody coupled to horseradish peroxidase using chemiluminescence with ECL detection KIT (GE Healthcare)
# Quantifications: Protein-band intensities were measured with ImageJ software and normalized against the loading control.
# as §2, §3
# h543 GSCs = assay: Sphere formation assay in patient-derived h543 GSCs; type: cell-based, human; conditions: for diameter of spheres / number of spheres: vs untreated controls; for sphere formation, dose-response: 7 days
# Experimental: (§5) FIG. 48. […] (A) Dose-response curves of the h676 GSCs treated 7 days with the indicated compounds. (B) Dose-response curves of the h543 GSCs treated 7 days with the indicated compounds. Data are represented as mean±SD.
# as §1
# (§6) Given the promising results the present inventors obtained with the TRF1 chemical modulators in the U251 GBM cell line, the present inventors next set to address the effects of these compounds in two independent patient-derived primary GSCs (h543 and h676) cultures.
# (§7) Next, the present inventors set to address whether the different compounds were able to block sphere formation in the h676 and h543 GSCs.
# h676 GSCs [3] = assay: Sphere formation assay in patient-derived h676 GSCs; type: cell-based, human; conditions: for diameter of spheres / number of spheres: vs untreated controls; for sphere formation, dose-response: 7 days
# Experimental: as §5, §1, §6, §7
# TRF1 [4] = assay: Western blot of TRF1 protein levels in h676 GSCs; type: cell-based, human; conditions: 1 μM, 24 h
# Experimental: FIG. 46. Screening of ETP-antitumoral library: Identification of TRF1 modulators in compounds approved by FDA or in clinical trials. (A) Drugs in ETP-antitumoral library distribution in Reactome Pathways. (B) Opera High ContentScreening system was used to identify compounds with the ability to inhibit TRF1, from representative images of confocal validation obtained from cells treated with DMSO (upper photograph of the right side of the panel and b) 1 μM of the tested compound, and determining the signal corresponding to TRF1 foci; TRF1 foci (green signal) can be appreciated clearly in the upper on the nuclear staining with DAPI (blue signal), but they have decreased in the lower photograph. (C) Representation of the inhibition of TRF1 levels by drugs belonging to different signaling pathways that modulate TRF1 at telomeres. Bar fillings vary depending on the signaling pathway. The results corresponding to three PI3K inhibitors inside the ETP-antitumoral library are represented by the three first bars from the right, validating the screening. (D) Structurally diverse MEK inhibitors tested in the chemical biology validation of the MEK/ERK pathway as modulator of TRF1 levels. (E) Structurally diverse ERK inhibitors tested in the chemical biology validation of the MEK/ERK pathway as modulator of TRF1 levels. (F) Inhibition of TRF1 levels by the MEK and ERK inhibitors represented in (D) and (E), respectively, measured by immunofluorescence. (G) Structurally diverse HSP90 inhibitors tested in the chemical biology validation of HSP90 pathway as modulator of TRF1 levels. (H) Inhibition of TRF1 levels by the HSP90 inhibitors represented in (G), measured by immunofluorescence. (I) Structurally diverse tubulin agent tested in the chemical biology validation of tubulin agents as modulator of TRF1 levels. (J) Inhibition of TRF1 levels by the tubulin agents represented in (I), measured by immunofluorescence. (K) Western Blot (up) and quantification (down) of TRF1 protein levels in the h676 GSCs after 24 h treatment with 1 μM of the indicated compounds. Data are represented as mean±SD. n represents biological replicates. Statistical analysis: unpaired t-test.
# as §4
# The present inventors treated GSCs for 24 h at 1 μM concentration and assessed TRF1 protein levels by western blot.
# TRF1 [5] = assay: Screening of ETP-antitumoral library / phenotypic assay of TRF1 levels in CHA-9.3 cells; type: cell-based, mouse; conditions: for inhibition of TRF1 protein levels / TRF1 modulation in the screening: CHA-9.3 mouse lung cancer cell line, 1 μM, 24 h; for modulation of TRF1 levels by tubulin agents (validation): immunofluorescence
# Experimental: All of them were tested at 1 μM during 24 h in the phenotypic assay that measure TRF1 levels.
# p-AKT = p-AKT activation (p-AKT/AKT western blot) in h676 GSCs; type: cell-based, human; conditions: 1 μM, 24 h
# Experimental: FIG. 47. […] Western Blot (up) and quantification (down) of p-AKT/AKT ratio in the h676 GSCs after 24 h treatment with 1 μM of the indicated compounds. Data are represented as mean±SD. n represents biological replicates.
# The present inventors have confirmed the modulation of TRF1 through the PI3K-AKT pathway (Méndez-Pertuz et al., 2017). In order to check whether the novel compounds act independently of this pathway, the present inventors treated the cells for 24 h at 1 μM concentration and checked p-AKT activation. They also included in this analysis some compounds previously identified by the same research group: namely ETP-47037 (PI3Ki) (García-Beccaria et al., 2015), and ETP-50946 (FIG. 47, right graph of the lower part).
# h676 GSCs [6] = assay: Drug combination studies (sphere number and diameter) in h676 GSCs; type: cell-based, human; conditions: number and diameter of spheres, 7 days
# Excerpt: FIG. 51. […] (A-F) Quantification of number of spheres (up) and diameter (down) in h676 GSCs treated with the indicated compounds. Representative image of the spheres (left). Data are represented as mean±SD (up) or mean±SD (down), n represents biological replicates (up) or number of spheres (down). Statistical analysis: unpaired t-test.
# Using this concentration as a reference point, the present inventors designed a combinatorial matrix using different concentrations of the compounds (e.g. 2×GI50, GI50 and ½ GI50) to study all the possible combinations. Combination index is calculated to establish if the combination is synergistic, additive or antagonistic (FIG. 50A).
# [7] = test system: K-Ras^G12V-induced lung tumors; conditions: p53-deficient background; cited from earlier work
structure (smiles),measurement,setting,value
NC(Cc1ccccc1)c1csc(Nc2ncccn2)n1 (racemic) [ETP-50946],diameter of neurospheres,U251 cells,strong reduction
same,number of neurospheres,U251 cells,strong reduction
same,TRF1 foci (immunofluorescence),TRF1 [1],effectively reduced
same,total TRF1 protein levels (western blot),TRF1 [2],effectively reduced
same,diameter of spheres,h543 GSCs,significant drastic reduction
same,number of spheres,h543 GSCs,significant drastic reduction
same,diameter of spheres,h676 GSCs [3],significant drastic reduction
same,number of spheres,h676 GSCs [3],significant drastic reduction
CN1CC[C@H](c2c(O)cc(O)c3c(=O)cc(-c4ccccc4Cl)oc23)[C@H](O)C1 [Flavopiridol],degree of TRF1 inhibition (TRF1 protein levels by western blot),TRF1 [4],medium TRF1 modulators
same,inhibition of TRF1 protein levels / TRF1 modulation in the screening,TRF1 [5],inhibit TRF1 protein levels; also recorded: novel TRF1 modulators
same,dependence on p-AKT (p-AKT activation),p-AKT,act independently of p-AKT
COc1ccc(-c2ccc3c(N4CCOCC4)nc(N4C[C@@H](C)O[C@@H](C)C4)nc3n2)cc1CO [KU-0063794],degree of TRF1 inhibition (TRF1 protein levels by western blot),TRF1 [4],medium TRF1 modulators
same,inhibition of TRF1 protein levels / TRF1 modulation in the screening,TRF1 [5],inhibit TRF1 protein levels; also recorded: novel TRF1 modulators
same,dependence on p-AKT (p-AKT activation),p-AKT,p-AKT dependent
COc1cc(Nc2ncc3c(n2)-c2ccc(Cl)cc2C(c2c(F)cccc2OC)=NC3)ccc1C(=O)O [Alisertib],degree of TRF1 inhibition (TRF1 protein levels by western blot),TRF1 [4],no ability to downregulate TRF1
same,inhibition of TRF1 protein levels / TRF1 modulation in the screening,TRF1 [5],inhibit TRF1 protein levels; also recorded: novel TRF1 modulators
same,dependence on p-AKT (p-AKT activation),p-AKT,act independently of p-AKT
Nc1ccn([C@@H]2O[C@H](CO)[C@@H](O)C2(F)F)c(=O)n1 [Gemcitabine],degree of TRF1 inhibition (TRF1 protein levels by western blot),TRF1 [4],medium TRF1 modulators
same,synergic effect in combination with PI3Ki (ETP-47037),h676 GSCs [6],significant synergic effect
same,inhibition of TRF1 protein levels / TRF1 modulation in the screening,TRF1 [5],inhibit TRF1 protein levels; also recorded: novel TRF1 modulators
same,"sphere formation, dose-response",h543 GSCs,most potent compounds
same,"sphere formation, dose-response",h676 GSCs [3],most potent compounds
same,dependence on p-AKT (p-AKT activation),p-AKT,act independently of p-AKT
Cc1cnc2c(N3CCOCC3)nc(-c3ccc(NC(=O)Nc4ccc(C(=O)N5CCN(C)CC5)cc4)cc3)cn12 [ETP-47228],diameter of neurospheres,U251 cells,strong reduction
same,number of neurospheres,U251 cells,strong reduction
same,TRF1 foci (immunofluorescence),TRF1 [1],effectively reduced
same,total TRF1 protein levels (western blot),TRF1 [2],effectively reduced
same,diameter of spheres,h543 GSCs,significant drastic reduction
same,number of spheres,h543 GSCs,significant drastic reduction
same,diameter of spheres,h676 GSCs [3],significant drastic reduction
same,number of spheres,h676 GSCs [3],significant drastic reduction
same,growth of already established lung adenocarcinomas,[7],effectively impair the growth
C[C@@H](Oc1cc(-n2cnc3ccc(CN4CCN(C)CC4)cc32)sc1C(N)=O)c1ccccc1C(F)(F)F [GSK461364],degree of TRF1 inhibition (TRF1 protein levels by western blot),TRF1 [4],no ability to downregulate TRF1
same,inhibition of TRF1 protein levels / TRF1 modulation in the screening,TRF1 [5],inhibit TRF1 protein levels; also recorded: novel TRF1 modulators
same,dependence on p-AKT (p-AKT activation),p-AKT,p-AKT dependent
O=C(Nc1ccc2[nH]nc(-c3ccncc3)c2c1)[C@@H]1CCN(CC(=O)N2CCN(c3ccc(-c4ncccn4)cc3)CC2)C1 [SCH772984],degree of TRF1 inhibition (TRF1 protein levels by western blot),TRF1 [4],potent TRF1 modulators
same,synergic effect in combination with PI3Ki (ETP-47037),h676 GSCs [6],significant synergic effect
same,inhibition of TRF1 protein levels / TRF1 modulation in the screening,TRF1 [5],novel TRF1 modulators
same,inhibition of TRF1 protein levels / TRF1 modulation in the screening,TRF1 [5]; listed as ERKi,inhibit TRF1 protein levels
same,dependence on p-AKT (p-AKT activation),p-AKT,act independently of p-AKT
CC(=O)O[C@H]1C(=O)[C@@]2(C)[C@H]([C@H](OC(=O)c3ccccc3)[C@]3(O)C[C@H](OC(=O)[C@H](O)[C@@H](NC(=O)c4ccccc4)c4ccccc4)C(C)=C1C3(C)C)[C@]1(OC(C)=O)CO[C@@H]1C[C@@H]2O [paclitaxel],modulation of TRF1 levels by tubulin agents (validation),TRF1 [5],more strongly
CC(=O)O[C@@]12CO[C@@H]1C[C@H](O)[C@@]1(C)C(=O)[C@H](O)C3=C(C)[C@@H](OC(=O)[C@H](O)[C@@H](NC(=O)OC(C)(C)C)c4ccccc4)C[C@@](O)([C@@H](OC(=O)c4ccccc4)[C@H]21)C3(C)C [Docetaxel],degree of TRF1 inhibition (TRF1 protein levels by western blot),TRF1 [4],medium TRF1 modulators
same,synergic effect in combination with PI3Ki (ETP-47037),h676 GSCs [6],significant synergic effect
same,inhibition of TRF1 protein levels / TRF1 modulation in the screening,TRF1 [5],inhibit TRF1 protein levels; also recorded: novel TRF1 modulators
same,modulation of TRF1 levels by tubulin agents (validation),TRF1 [5],more strongly
same,"sphere formation, dose-response",h543 GSCs,most potent compounds
same,"sphere formation, dose-response",h676 GSCs [3],most potent compounds
same,dependence on p-AKT (p-AKT activation),p-AKT,act independently of p-AKT
